Values of other authors in patent EP4066850A2, “PEPTIDES AND METHODS OF TREATING DYSTROPHY-RELATED DISORDERS USING THE SAME” (Bioincept LLC, priority 2017, dated 2018).

Conditions: IV infusion together with radiation; xerostomia treatment (Kouvaria et al 2007)

With `NCCCNCCSP(=O)(O)O` [Amifostine] as the compound, how does the side effects read?
Its side effects is “serious side effects including fatal skin reaction”.
